# Reference: patent publication US10138275B2, “Crystalline powder of cyclic peptide compound, preparation method for same, and uses thereof” (SHANGHAI TECHWELL BIOPHARMACEUTICAL CO., LTD, priority 2014, dated 2018)
# Starred links: 1 amine or outer side, 2 acyl side, 3 side chain; linkers in the order of their positions; H or OH if unused. Positions of bridges follow the written chain, without caps; N, C: chain ends. Non-standard residues stand in square brackets, D forms with d. Residues, ends and D or L forms follow the SMILES beside them. *: point of attachment. hTyr(3S-OH,4S-OH,3'-OSO3H) = N[C@H](C(=O)O)[C@H](O)[C@@H](O)c1ccc(O)c(OS(=O)(=O)O)c1; Orn(4R-OH,5R-OH) = O=C([C@H](C[C@@H](O)[C@@H](O)N[*:3])N[*:1])[*:2]; Pro(3S-OH,4S-Me) = C[C@H]1CN[C@H](C(=O)O)[C@H]1O; X1 = CCCCCOc1ccc(-c2cc(-c3ccc(C(=O)*)cc3)no2)cc1; Gln(3R-OH) = NC(=O)C[C@@H](O)[C@H](N)C(=O)O; Hyp = O=C(O)[C@@H]1C[C@@H](O)CN1
# How the values were obtained:
# [1] = Ratio of dry weight to wet weight (Dry/Wet) of filtered solids; format: physicochemical; details: wet solids weighed after filtration, before drying
# From the text: As used herein, the term “Dry/Wet” and “ratio of dry weight to wet weight” can be used interchangeably, both of which refer to the ratio of the weight of a compound without solvent(s) to the weight of the compound with solvent(s). In the present invention, wet weight of crystals is obtained by filtering the crystallized solids until no noticeable droplet outflows and weighing the solids.
# [2] = Filtration through a Buchner funnel until no noticeable droplet outflowed; format: physicochemical
# From the text: In this example, the precipitated solids from Examples 2-10 and Comparative Examples 1-3 were filtered through a Buchner funnel until no noticeable droplet outflowed, and the filtration processes were compared.
# [3] = Vacuum-drying at 25° C. with a water system until no organic solvent detected by GC; purity by HPLC; format: physicochemical; details: for time Needed (for drying): 25° C., vacuum-drying with a water system until no organic solvent detected by GC; for Purity before drying / Purity after drying: HPLC; for Purity before drying: 5 g of solids; for Purity after drying: vacuum-dried at 25° C. with a water system until no organic solvent detected by GC
# From the text: High performance liquid chromatography (HPLC) is a common method for determining the purity of a compound, wherein a liquid is used as the mobile phase and a high-pressure transfusion system is used for pumping the mobile phase, such as single solvents with different polarities, a mixture of solvents at different proportions, or buffers, into a column packed with a stationary phase. Each component is separated in the column, and then enters into a detector for detection, thereby analyzing a sample. In the present invention, HPLC is used for determining the purity of the compound of formula I and studying the stability of a sample. Conditions of the HPLC method are listed as follows:
# Analysis Column: YMC-ODS 250×4.6 mm, 5 μm;
# Mobile phase: acetonitrile:phosphate buffer (pH 3.0)=45:70;
# Column temperature: 35° C.;
# Diluent: aqueous phosphate buffer;
# Detection wavelength: 210 nm;
# Gas chromatography (GC) used to separate and measure trace impurities in a compound is an accurate, qualitative and quantitative method of analysis. In the present invention, the content of organic solvents in the crystalline powder of the compound of formula I obtained in the present invention is measured by gas chromatography (GC).
# 5 g of solids were prepared according to the methods of Examples 2-10 and Comparative Examples 1-3 respectively, placed at 25° C., and vacuum-dried together with a water system until no organic solvent was detected through GC. The time for drying was compared, and the purity of the sample was analyzed.
# [4] = Particle size distribution (d10, d50) by Malvern particle size analyzer / laser diffraction; format: physicochemical; details: for d10, particle size of the crystalline powder / d50, particle size of the crystalline powder: after drying
# Description: […] Wherein, d10 and d50 are means known for indicating the particle size distribution. d50 refers to a value of particle size, and the size of 50 vol/% of particles is smaller than said value. D10 refers to a value of particle size, and the size of 10 vol/% of particles is smaller than said value. The preferred method for determining d10 and d50 is laser diffraction, d50 of the crystalline powder of the compound of formula I according to the present invention is determined as 10-100 um, and d10 is determined as 1-9 um. Preferably, d50 of the crystalline powder is 20-50 um, and d10 thereof is 1-5 um. Before solid-liquid separation, d50 of the crystalline powder of the compound of formula I is 10-100 um, and d10 thereof is 1-9 um. Preferably, d50 of the crystalline powder is 20-50 um, and d10 thereof is 3-6 um.
# [5] = Bulk density of powder by cylinder measurement; format: physicochemical; details: after drying
# Description: “Bulk density of powder” is a measurement standard for the relative importance of the interaction between microparticles by comparing the bulk density and tapped density of the powder. Methods for measuring bulk density of powder are known in the art; for example, it can be determined by cylinder measurement, volumetric measurement, and container measurement. Bulk density of the crystalline powder of the compound of formula I according to the present invention is determined as less than 0.7 g/mL, preferably less than 0.6 g/mL, most preferably less than 0.5 g/mL, by cylinder measurement.
# [6] = Exposure of dried B82 crystal to the environment (moisture uptake, stability); format: physicochemical
# From the text: Before drying of the crystals, the content of solvent in the compound of formula I (Dry/Wet) was about 0.25, and a large amount of organic solvent was trapped in the crystal. To render the content of solvent in compliance with the requirements for active pharmaceutical ingredients (API), the drying temperature or the drying time has to be increased during the drying process. Such drying process, however, will increase the degradation product of the compound of formula I, seriously affecting the quality and stability of API.
# [7] = Ohigashi et al. 2006, cited from earlier work
SMILES,ratio of dry weight to wet weight (Dry/Wet) [1],Time for filtration [2] [min],time Needed (for drying) [3] [h],Purity before drying [3] [%],Purity after drying [3] [%],d50 of the obtained crystals ([4]; B82-type crystal prepared per Example 1 of WO03/018615),"d10, particle size of the crystalline powder [4] [um]","d50, particle size of the crystalline powder [4] [um]",Bulk density [5] [g/mL],Bulk density ([5]; listed as B82-type crystals),ratio of dry weight to wet weight (Dry/Wet) ([1]; listed as B82-type crystals),moisture absorption when exposed to the environment [6],stability when exposed to the environment [6],content of solvent in the precipitate ([7]; amorphous precipitate before drying),Dry/Wet of the precipitate before drying ([7]; amorphous precipitate from acetone/ethyl acetate)
"CCCCCOc1ccc(-c2cc(-c3ccc(C(=O)N[C@H]4C[C@@H](O)[C@@H](O)NC(=O)[C@@H]5[C@@H](O)[C@@H](C)CN5C(=O)[C@H]([C@H](O)CC(N)=O)NC(=O)[C@H]([C@H](O)[C@@H](O)c5ccc(O)c(OS(=O)(=O)[O-])c5)NC(=O)[C@@H]5C[C@@H](O)CN5C(=O)[C@H]([C@@H](C)O)NC4=O)cc3)no2)cc1.[Na+] [Comparative Example 3, reference compound] (X1-[Orn(4R-OH,5R-OH)]T[Hyp][hTyr(3S-OH,4S-OH,3'-OSO3H)][Gln(3R-OH)][Pro(3S-OH,4S-Me)]; lactam 1-C)",0.1,300,32,98.74,96.17,–,–,–,–,–,–,–,–,–,–
"CCCCCOc1ccc(-c2cc(-c3ccc(C(=O)N[C@H]4C[C@@H](O)[C@@H](O)NC(=O)[C@@H]5[C@@H](O)[C@@H](C)CN5C(=O)[C@H]([C@H](O)CC(N)=O)NC(=O)[C@H]([C@H](O)[C@@H](O)c5ccc(O)c(OS(=O)(=O)[O-])c5)NC(=O)[C@@H]5C[C@@H](O)CN5C(=O)[C@H]([C@@H](C)O)NC4=O)cc3)no2)cc1.[Na+] [Comparative Example 2, reference compound] (X1-[Orn(4R-OH,5R-OH)]T[Hyp][hTyr(3S-OH,4S-OH,3'-OSO3H)][Gln(3R-OH)][Pro(3S-OH,4S-Me)]; lactam 1-C)",0.13,150,30,98.82,96.21,–,–,–,–,–,–,–,–,–,–
"CCCCCOc1ccc(-c2cc(-c3ccc(C(=O)N[C@H]4C[C@@H](O)[C@@H](O)NC(=O)[C@@H]5[C@@H](O)[C@@H](C)CN5C(=O)[C@H]([C@H](O)CC(N)=O)NC(=O)[C@H]([C@H](O)[C@@H](O)c5ccc(O)c(OS(=O)(=O)[O-])c5)NC(=O)[C@@H]5C[C@@H](O)CN5C(=O)[C@H]([C@@H](C)O)NC4=O)cc3)no2)cc1.[Na+] [Comparative Example 1, reference compound] (X1-[Orn(4R-OH,5R-OH)]T[Hyp][hTyr(3S-OH,4S-OH,3'-OSO3H)][Gln(3R-OH)][Pro(3S-OH,4S-Me)]; lactam 1-C)",0.25,90,25,99.26,97.96,0.2-1.0 um,0.25,0.7,0.85,about 0.8 g/mL,about 0.25,inclined to absorb moisture,poor stability,–,–
"CCCCCOc1ccc(-c2cc(-c3ccc(C(=O)N[C@H]4C[C@@H](O)[C@@H](O)NC(=O)[C@@H]5[C@@H](O)[C@@H](C)CN5C(=O)[C@H]([C@H](O)CC(N)=O)NC(=O)[C@H]([C@H](O)[C@@H](O)c5ccc(O)c(OS(=O)(=O)[O-])c5)NC(=O)[C@@H]5C[C@@H](O)CN5C(=O)[C@H]([C@@H](C)O)NC4=O)cc3)no2)cc1.[Na+] [Example 7] (X1-[Orn(4R-OH,5R-OH)]T[Hyp][hTyr(3S-OH,4S-OH,3'-OSO3H)][Gln(3R-OH)][Pro(3S-OH,4S-Me)]; lactam 1-C)",0.69,–,9.5,99.65,99.57,–,1,10,0.6,–,–,–,–,–,–
"CCCCCOc1ccc(-c2cc(-c3ccc(C(=O)N[C@H]4C[C@@H](O)[C@@H](O)NC(=O)[C@@H]5[C@@H](O)[C@@H](C)CN5C(=O)[C@H]([C@H](O)CC(N)=O)NC(=O)[C@H]([C@H](O)[C@@H](O)c5ccc(O)c(OS(=O)(=O)[O-])c5)NC(=O)[C@@H]5C[C@@H](O)CN5C(=O)[C@H]([C@@H](C)O)NC4=O)cc3)no2)cc1.[Na+] [compound of formula I, 5-[(1S,2S)-2-[(3S,6S,9S,11R,15S,18S,20R,21R,24S,25S,26S)-3-[(R)-2-carbamoyl-1-hydroxyethyl]-11,20,21,25-tetrahydroxy-15-[(R)-1-hydroxyethyl]-26-methyl-2,5,8,14,17,23-hexaoxo-18-[4-[5-(4-pentoxyphenyl)isoxazol-3-yl]benzoylamino]-1,4,7,13,16,22-hexaazatricyclo[22.3.0.0.0^9,13]heptacosan-6-yl]-1,2-dihydroxyethyl]-2-hydroxy phenyl sulfate] (X1-[Orn(4R-OH,5R-OH)]T[Hyp][hTyr(3S-OH,4S-OH,3'-OSO3H)][Gln(3R-OH)][Pro(3S-OH,4S-Me)]; lactam 1-C)",–,–,–,–,–,–,–,–,–,–,–,–,–,about 75%,0.25
